Counter-ions that a name gives are not always drawn. Like-named read-outs stand apart in the source and are kept apart here.

One test deals with RIPK1 (Homo sapiens (Human), UniProt Q13546). The experiment in a line: RIPK1 ADP-Glo biochemical kinase assay. The method, then:
The final reaction volume was 5.0ul.
Adding 5 μl of ADP-Glo™ terminated the reaction.

The test system of a further test is L929 cells. Briefly: L929 cell necroptosis assay (TNFa + zVAD, CellTiter-Glo). Type of test: cell-based, murine. The method, then: (§1) In this example, U937 and L929 cells were exposed to compounds of the present disclosure and a cell necroptosis assay was conducted to evaluate the compounds' activity against human RIP1 and murine RIP1.
U937 and L929 cells were obtained from the American Type Culture Collection (Manassa, Va., USA). Both cells were maintained in logarithmic growth phase in complete RPMI 1640 media (Sigma, ST Louis, Mo., USA) supplemented with 10% fetal bovine serum (Sigma, ST Louis, Mo., USA) at 37° C. with 5% CO2. For necroptosis assay, L929 cells were plated for 18 h in 100 μL/well medium at 10K cells/well in Costar 96-well black clear-bottom plates (Fisher Scientific, Hampton, N.H., USA); U937 cells were plated on the day of the assay in 50 4/well medium containing 60 uM zVAD-fink (Lonza, Basel, Switzerland) at 50K cells/well. Medium from L929 cells were removed from the 96-well plates and replaced with 50 μL/well new medium containing 40 uM zVAD-fink. Each compound of the present disclosure evaluated in this example was serially diluted in DMSO from 2.5 mM in 4-fold dilutions, and then diluted 1:125 in complete medium. 50 μL/well 2× of the compound was then added to the cells in the plates. […] The relative amount of necroptosis cells was determined by luminescent using a Wallac Victor2 Luminometer (PerkinElmer, Waltham, Mass., USA) and a CellTiter-Glo® Luminescent Cell Viability Reagent Assay (Promega, Madison, Wis., USA) added per manufacturer instructions after 18 hours of TNFa stimulation at 37° C. with 5% CO2.

Another test has as its system U937 cells. The experiment in a line: U937 cell necroptosis assay (TNFa + zVAD, CellTiter-Glo). Type of test: cell-based, human. As for the experimental part: as §1
U937 and L929 cells were obtained from the American Type Culture Collection (Manassa, Va., USA). Both cells were maintained in logarithmic growth phase in complete RPMI 1640 media (Sigma, ST Louis, Mo., USA) supplemented with 10% fetal bovine serum (Sigma, ST Louis, Mo., USA) at 37° C. with 5% CO2. For necroptosis assay, L929 cells were plated for 18 h in 100 μL/well medium at 10K cells/well in Costar 96-well black clear-bottom plates (Fisher Scientific, Hampton, N.H., USA); U937 cells were plated on the day of the assay in 50 4/well medium containing 60 uM zVAD-fink (Lonza, Basel, Switzerland) at 50K cells/well. Medium from L929 cells were removed from the 96-well plates and replaced with 50 μL/well new medium containing 40 uM zVAD-fink. Each compound of the present disclosure evaluated in this example was serially diluted in DMSO from 2.5 mM in 4-fold dilutions, and then diluted 1:125 in complete medium. 50 μL/well 2× of the compound was then added to the cells in the plates. The cells were pre-incubated with the compound for 1 hour at 37° C. with 5% CO2 and before addition of 10 μL/well 1 1×TNFa (Peprotech, Rocky Hill, N.J., USA) to give a final concentration of 2 ng/mL for TNFa. The relative amount of necroptosis cells was determined by luminescent using a Wallac Victor2 Luminometer (PerkinElmer, Waltham, Mass., USA) and a CellTiter-Glo® Luminescent Cell Viability Reagent Assay (Promega, Madison, Wis., USA) added per manufacturer instructions after 18 hours of TNFa stimulation at 37° C. with 5% CO2. This example establishes that embodiments of the compounds described herein have unexpectedly potent activity against human RIP1 and murine RIP1, which allows their assessment in in vivo mouse models of disease.

Setting [1] is: read-out: RIPK1 ADP-Glo Kinase (IC50).
Where [2] appears, read: Mus musculus, L929, L929 cells, TNFa + zVAD, read-out: L929-CTG-recovery, L929, TNFa + zVAD (IC50).
Setting [3] is: Homo sapiens, U-937, U937 cells, TNFa + zVAD, read-out: U937 Zvad TNF CTG Recovery, U937, TNFa + zVAD (IC50).

Sequence of RIPK1 (Q13546 whole entry, species assumed): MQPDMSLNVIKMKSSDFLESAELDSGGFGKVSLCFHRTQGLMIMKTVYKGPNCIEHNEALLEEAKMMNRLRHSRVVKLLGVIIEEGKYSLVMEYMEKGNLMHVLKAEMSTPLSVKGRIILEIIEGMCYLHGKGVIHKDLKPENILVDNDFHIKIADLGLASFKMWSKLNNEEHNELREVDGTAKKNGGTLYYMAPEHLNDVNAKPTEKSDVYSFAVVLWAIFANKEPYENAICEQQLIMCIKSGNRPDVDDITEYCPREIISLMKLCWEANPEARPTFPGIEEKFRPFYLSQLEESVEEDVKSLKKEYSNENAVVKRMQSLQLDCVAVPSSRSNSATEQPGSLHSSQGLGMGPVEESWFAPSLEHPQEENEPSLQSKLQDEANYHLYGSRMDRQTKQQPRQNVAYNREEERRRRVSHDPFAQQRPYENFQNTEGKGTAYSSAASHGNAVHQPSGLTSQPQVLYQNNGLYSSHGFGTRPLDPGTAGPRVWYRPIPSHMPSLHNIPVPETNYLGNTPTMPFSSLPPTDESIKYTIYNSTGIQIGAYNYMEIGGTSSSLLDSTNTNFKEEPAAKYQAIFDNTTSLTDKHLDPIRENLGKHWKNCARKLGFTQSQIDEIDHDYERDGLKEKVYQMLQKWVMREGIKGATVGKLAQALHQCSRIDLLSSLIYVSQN

On to `CN1C(=O)[C@@H](NC(=O)c2cc(Oc3ccc(F)cc3F)ccn2)COc2ccc(C#CC(C)(C)O)cc21` [Compound I-105, (S)-4-(2,4-difluorophenoxy)-N-(7-(3-hydroxy-3-methylbut-1-yn-1-yl)-5-methyl-4-oxo-2,3,4,5-tetrahydrobenzo[b][1,4]oxazepin-3-yl)picolinamide], for which the concentration for half-maximal inhibition (IC50) on RIPK1 (setting [1]) turned out to be 31.2 nM; in the test with L929 cells (setting [2]), 254 nM; in the test with U937 cells (setting [3]), 9.3 nM.
For the molecule `CN1C(=O)[C@@H](NC(=O)c2n[nH]c(Cc3ccccc3)n2)COc2ccc(C#CC3(O)COC3)cc21` [Compound I-57, (S)-5-benzyl-N-(7-((3-hydroxyoxetan-3-yl)ethynyl)-5-methyl-4-oxo-2,3,4,5-tetrahydrobenzo[b][1,4]oxazepin-3-yl)-1H-1,2,4-triazole-3-carboxamide], the IC50 on RIPK1 (setting [1]) was 21.5 nM; in the test on L929 cells (setting [2]) it was 0.9 nM; in the test on U937 cells (setting [3]) it was 3 nM.
On the same counts, the results for `Cc1ccccc1Cn1cnc(C(=O)N[C@H]2COc3ccc(C#CC(C)(C)O)cc3N(C)C2=O)n1` [Compound I-82, (S)—N-(7-(3-hydroxy-3-methylbut-1-yn-1-yl)-5-methyl-4-oxo-2,3,4,5-tetrahydrobenzo[b][1,4]oxazepin-3-yl)-1-(2-methylbenzyl)-1H-1,2,4-triazole-3-carboxamide] are 25.5 nM, 0.3 nM and 1.9 nM.
On the same counts, the results for `CN1C(=O)[C@@H](NC(=O)n2cc(Cc3ccccc3)cn2)COc2ccc(C#CC(C)(C)O)cc21` [Compound I-213, (S)-4-Benzyl-N-(7-(3-hydroxy-3-methylbut-1-yn-1-yl)-5-methyl-4-oxo-2,3,4,5-tetrahydrobenzo[b][1,4]oxazepin-3-yl)-1H-pyrazole-1-carboxamide] are 35.2 nM, 45.5 nM and 1 nM.
With `CN1C(=O)[C@@H](NC(=O)c2cc(Oc3ccccc3)ccn2)COc2cc(C#Cc3ccccn3)ccc21` [II-16, (S)—N-(5-methyl-4-oxo-8-(pyridin-2-ylethynyl)-2,3,4,5-tetrahydrobenzo[b][1,4]oxazepin-3-yl)-4-phenoxypicolinamide], the half-maximal inhibitory concentration (IC50) on RIPK1 (setting [1]) was found to be 45.2 nM; with L929 cells (setting [2]) it was 2120 nM; in the test with U937 cells (setting [3]), 3.4 nM.
Turning to `CN1CC(O)(C#Cc2ccc3c(c2)N(C)C(=O)[C@@H](NC(=O)c2cc(Oc4ccccc4)ccn2)CO3)C1` [Compound I-137, (S)—N-(7-((3-hydroxy-1-methylazetidin-3-yl)ethynyl)-5-methyl-4-oxo-2,3,4,5-tetrahydrobenzo[b][1,4]oxazepin-3-yl)-4-phenoxypicolinamide], the concentration for half-maximal inhibition (IC50) at RIPK1 (setting [1]) amounted to 23.6 nM; in the test with L929 cells (Mus musculus, L929, read-out: L929-CTG-recovery, L929, TNFa + zVAD (IC50), L929 cells, TNFa + zVAD) it was 333 nM; in the test on U937 cells (Homo sapiens, U-937, read-out: U937 Zvad TNF CTG Recovery, U937, TNFa + zVAD (IC50), U937 cells, TNFa + zVAD), 5 nM.
Take `C=C(C)C#Cc1ccc2c(c1)NC(=O)[C@@H](NC(=O)c1n[nH]c(Cc3ccccc3)n1)CO2` [Compound I-93, (S)-5-benzyl-N-(7-(3-methylbut-3-en-1-yn-1-yl)-4-oxo-2,3,4,5-tetrahydrobenzo[b][1,4]oxazepin-3-yl)-1H-1,2,4-triazole-3-carboxamide]: the IC50 at RIPK1 (setting [1]) amounted to 64.1 nM; with L929 cells (setting [2]), 921 nM; with U937 cells (setting [3]), 3240 nM.
On the same counts, the results for `CN1C(=O)[C@@H](NC(=O)c2cc(Oc3ccccc3F)ccn2)COc2ccc(C#CC(C)(C)O)cc21` [Compound I-103, (S)-4-(2-fluorophenoxy)-N-(7-(3-hydroxy-3-methylbut-1-yn-1-yl)-5-methyl-4-oxo-2,3,4,5-tetrahydrobenzo[b][1,4]oxazepin-3-yl)picolinamide] are 49 nM, 67.4 nM and 1.5 nM.
The corresponding values for `CN1C(=O)[C@@H](NC(=O)c2cc(Oc3ccc(F)cc3F)ccn2)COc2ccc(C#CC(C)(C)C)cc21` [Compound I-104, (S)-4-(2,4-difluorophenoxy)-N-(7-(3,3-dimethylbut-1-yn-1-yl)-5-methyl-4-oxo-2,3,4,5-tetrahydrobenzo[b][1,4]oxazepin-3-yl)picolinamide] are 581 nM, 1820 nM and 224 nM.
Take `CN1C(=O)[C@@H](NC(=O)c2cc(Oc3ccccc3)ccn2)COc2ccc(C#CC3(OC(=O)CCC(=O)O)COC3)cc21` [Compound I-165, (S)-4-((3-((5-methyl-4-oxo-3-(4-phenoxypicolinamido)-2,3,4,5-tetrahydrobenzo[b][1,4]oxazepin-7-yl)ethynyl)oxetan-3-yl)oxy)-4-oxobutanoic acid 2-amino-2-(hydroxymethyl)propane-1,3-diol salt]: the IC50 at RIPK1 (setting [1]) amounted to 11.2 nM; with L929 cells (L929 cells, TNFa + zVAD, read-out: L929-CTG-recovery, L929, TNFa + zVAD (IC50)), 47.1 nM; in the test on U937 cells (U937 cells, TNFa + zVAD, read-out: U937 Zvad TNF CTG Recovery, U937, TNFa + zVAD (IC50)), 0.9 nM.
In the case of `CN1C(=O)[C@@H](NC(=O)c2cc(Oc3ccccc3)ccn2)COc2ccc(C#CC(C)(C)N3CCOCC3)cc21` [Compound I-206, (S)—N-(5-Methyl-7-(3-methyl-3-morpholinobut-1-yn-1-yl)-4-oxo-2,3,4,5-tetrahydrobenzo[b][1,4]oxazepin-3-yl)-4-phenoxypicolinamide], the figures for the IC50 against RIPK1, in the test on L929 cells (setting [2]) and with U937 cells (setting [3]) were 55.6 nM, 41.5 nM and 0.6 nM, respectively.
For the molecule `CN1C(=O)[C@@H](NC(=O)c2n[nH]c(Cc3ccccc3)n2)COc2ccc(CCC(=O)Nc3ccc4cn[nH]c4c3)cc21` [Compound I-3, (S)—N-(7-(3-((1H-indazol-6-yl)amino)-3-oxopropyl)-5-methyl-4-oxo-2,3,4,5-tetrahydrobenzo[b][1,4]oxazepin-3-yl)-5-benzyl-1H-1,2,4-triazole-3-carboxamide], the results for the IC50 at RIPK1 (setting [1]), in the test with L929 cells (setting [2]) and in the test on U937 cells (setting [3]) were 40.2 nM, 428 nM and 4.9 nM, respectively.
As to `CN1C(=O)[C@@H](NC(=O)c2n[nH]c(Cc3ccc(F)cc3F)n2)COc2ccc(CCC(=O)NC3CC3)cc21` [Compound I-27, (S)—N-(7-(3-(cyclopropylamino)-3-oxopropyl)-5-methyl-4-oxo-2,3,4,5-tetrahydrobenzo[b][1,4]oxazepin-3-yl)-5-(2,4-difluorobenzyl)-1H-1,2,4-triazole-3-carboxamide], the IC50 is 158 nM on RIPK1 (setting [1]) and 69.7 nM in the test with U937 cells (setting [3]).
On the same counts, the results for `CN1C(=O)[C@@H](NC(=O)c2cc(Oc3ccc(C#N)cc3)ccn2)COc2cc(C#CC(C)(C)O)ccc21` [II-17, (S)-4-(4-cyanophenoxy)-N-(8-(3-hydroxy-3-methylbut-1-yn-1-yl)-5-methyl-4-oxo-2,3,4,5-tetrahydrobenzo[b][1,4]oxazepin-3-yl)picolinamide] are 518 nM and 1490 nM.
Regarding `CN1C(=O)[C@@H](NC(=O)c2cc(Oc3ccccc3)ccn2)COc2cc(N3CCC4(CCOCC4)CC3)ccc21` [II-26, (S)—N-(5-methyl-4-oxo-8-(3-oxa-9-azaspiro[5.5]undecan-9-yl)-2,3,4,5-tetrahydrobenzo[b][1,4]oxazepin-3-yl)-4-phenoxypicolinamide], the IC50 at RIPK1 is 193 nM; with U937 cells (setting [3]), 510 nM.
As for `CN1C(=O)[C@@H](NC(=O)c2ccc(Oc3ccc(F)cc3)cn2)COc2ccc(C#CC(C)(C)O)cc21` [Compound I-122, (S)-5-(4-fluorophenoxy)-N-(7-(3-hydroxy-3-methylbut-1-yn-1-yl)-5-methyl-4-oxo-2,3,4,5-tetrahydrobenzo[b][1,4]oxazepin-3-yl)picolinamide], the IC50 at RIPK1 (setting [1]) was 12300 nM; in the test with U937 cells (setting [3]) it was 40400 nM.

Source of the values: US11407736B2 (priority 2019, dated 2022).
